From patent US4994554A, “Probursin” (Immunobiology Research Institute, Inc., priority 1988, dated 1991) come the findings set out here.

For one test, the system named is Daudi cells. Put plainly: Cyclic GMP assay in Daudi cells. Conditions: 0 to 1000 micrograms/ml, FIG. 5A. The class given is cell-based. On the procedure:
Daudi cells were freshly seeded and grown for 2 days with harvesting as described in T. Audhya et al, Arch. Biochem Biophys., 234:167-177 (1984). The cells were washed 3 times in PBS and resuspended in RPMI 1640 at a concentration of 1.0×10^7 cells/ml and were allowed to equilibrate at 37° C. for 30 minutes before the addition of the test compounds (25 ul) of bursin and probursin, and control peptides porcine insulin (A), equine myoglobin (B) and bovine growth hormone (C). The incubation was allowed to proceed in a shaking water bath for 4-5 minutes and was then terminated by addition of 1 ml ice-cold TCA (10%).
The cells in TCA were homogenized and sonicated to release cyclic nucleotide. The suspension was centrifuged at 3000×g for 20 minutes at 4° C. The resulting precipitate was dissolved in 0.1 N NaOH to determine the protein content. TCA was removed from the supernatant fraction by extracting 4 times with 5 ml of water-saturated diethyl ether. […]
Dose-response curves from 0 to 1000 micrograms/ml were evaluated for bursin, probursin and controls. […] A threshold activity was determined for each peptide tested. […] Test results were considered positive if the level of cyclic GMP was greater than 1.52 times (2 standard deviations) that determined for the parallel negative control.

Another test has as its system MOPC-315 cells. The test can be described thus: Cyclic GMP assay in MOPC-315 cells. It is filed as cell-based. The following applies: 0 to 1000 micrograms/ml, FIG. 5B.
The subject of another test is Anti-bursin antiserum. The test can be described thus: ELISA blocking of anti-bursin antiserum binding by absorbants. Further details: species or system rabbit. The following applies: FIG. 3B. As for the experimental part: Antisera were tested for activity in the following ELISA protocol. The assays were performed according to the method of Voller et al, Bull. WHO, 53:55 (1976). Briefly, polyvinyl chloride microtiter plates (Fisher Scientific, Springfield, N.J.) were coated overnight with 100 ul/well of 10 ug/ml solution of tetramer of probursin in 0.1 M phosphate buffer, pH 7.2. Plates were washed and were postcoated with 150 ul/well of 0.5 percent bovine serum albumin in PBS, pH 7.2, for one hour at room temperature. Plates were washed, dried at 37° C. for 6-24 hours and sealed in dessicated packages and stored at 4° C.
Antisera to be tested were diluted in PBS containing 0.05 percent Tween 20. One hundred ul of the diluted sera were added per well in triplicates. Normal rabbit or mouse serum was used as the negative control. After 60 minutes of incubation at room temperature the plates were washed three times with PBS Tween-20. One hundred ul of alkaline phosphatase conjugated to affinity-purified goat anti-rabbit IgG (heavy and light chains) diluted 1:2000 in PBS Tween-20 were added to each well. The plates were incubated at room temperature for 60 minutes. […] After 30 minutes of incubation at room temperature the reaction was terminated with the addition of 50 ul/well of 5 N NaOH and the optical density was read at 410 nm. […]

The subject of test [1] is SV40 transformed hamster beta cells (HIT). Put plainly: Growth hormone inhibition: GRF-stimulated 3H inositol phosphate (IP) release and growth hormone (GH) accumulation, RIA of supernatant. The class given is cell-based. The following applies: for [GH] / [IP]: 15 min. On the procedure:
An assay was performed to study the effect of probursin in combination with growth hormone releasing factor (GRF) as this combination effects the release of ^3 H inositol phosphate (IP) and growth hormone (GH) accummulation in SV40 transformed hamster beta cells (HIT). The experiment was performed according to the procedures described in M. J. Berridge et al, cited above.
Briefly described, commercially available HIT cells were incubated at 37° C. for 1 hour in metabolic RPMI medium with 5% fetal calf serum (FCS). GRF in varying concentrations indicated in the Table below was added to the cell culture and incubated for 15 minutes at 37° C. The cells were then centrifuged at 800 rpm and the supernatant collected. Levels of GH and IP were measured in the supernatant by radioimmunoassay (RIA) also according to Berridge et al. These measurements formed the GRF control.
The same procedure was followed without the addition of GRF and is indicated below as the control.
Similarly, to indicate the effect of probursin on GRF, the procedure above was followed except that GRF and probursin at the appropriate concentrations indicated in the Table below were added to the cells together and followed by 15 minutes incubation and centrifugation. When the supernatant was measured by RIA as described above, the resulting concentrations of IP and GH were determined as illustrated in the Table below.

The mark [2] stands for this setting: GRF (0.1 nM) + Probursin (.1 μM).
Where [3] appears, read: GRF (1 nM) + Probursin (0.1 μM).
[4] abbreviates: GRF (1 nM) + Probursin (1.0 μM).
Where [5] appears, read: GRF (10 nM) + Probursin (10.0 μM).
Setting [6] is: GRF 0.1 nM alone, HIT cell supernatant.
Where [7] appears, read: GRF 1 nM alone, HIT cell supernatant.
Where [8] appears, read: GRF 10 nM alone, HIT cell supernatant.

Where no end group is shown, it is not given here.

Take “FFWKTKPRKHGGRR [Probursin, Phe-Phe-Trp-Lys-Thr-Lys-Pro-Arg-Lys-His-Gly-Gly-Arg-Arg]”: the “induction of intracellular cyclic GMP (dose-response)” value with Daudi cells and in the test with MOPC-315 cells was “active” in each case. Also, the “blocking of anti-bursin antiserum binding” value in the test on Anti-bursin antiserum is given as “blocked”. Moreover, the “[GH]” value in test [1] (setting [2]) is 35 ± 4 n/ml; in test [1] (setting [3]), 480 ± 31 n/ml; in test [1] (setting [4]), 77 ± 6 n/ml; in test [1] (setting [5]) it was 29 ± 3 n/ml. In addition, the “[IP]” value came to 239 ± 13 cpm in test [1] (setting [2]), 1911 ± 310 cpm in test [1] (setting [3]), 444 ± 22 cpm in test [1] (setting [4]) and 382 ± 16 cpm in test [1] (setting [5]). The “effect on growth hormone releasing factor action (IP and GH)” value in test [1] (HIT cells, summary in words) was “marked suppression”. In test [1] (summary in words, refers to Example 6), the “release of growth hormone” value is given as “inhibit”.

Consider “GRF: growth hormone releasing factor, stimulus in HIT cell assay (YADAIFTNSYRKVLGQLSARKLLQDIMSRQQGESNQERGARARL; ends and bridges not checked; UniProt P01286 32-75, looked up) [reference compound]”, for which the “[GH]” value is listed as 162 ± 4 n/ml in test [1] (setting [6]), 648 ± 26 n/ml in test [1] (setting [7]) and 1162 ± 84 n/ml in test [1] (setting [8]). For the same substance, the “[IP]” value in test [1] (setting [6]) stood at 489 ± 19 cpm; in test [1] (setting [7]) it was 2810 ± 290 cpm; in test [1] (setting [8]) it was 8962 ± 821 cpm.
